Results published in patent publication US5714483A, “Antitussive” (TORAY Industries, Inc., priority 1992, dated 1998).

Legend:
capsaicin-induced cough [1] = assay: Capsaicin-induced cough in rats (60 μM capsaicin), ED50, Example 3; format: in vivo, SD male rats; settings: Rattus norvegicus, ip, 0.5 h; i.p.; capsaicin 60 μM, 30 minutes after administration; read-out: ED50 (dose at which the number of cough is suppressed to half)
Protocol: (§1) SD male rats (body weight: 250-350 g) were used under non-anesthesic condition.
(§2) Respiration and cough were measured by plestimography. The body plestimograph used has a plastic cylinder having a diameter of 7.5 cm and a length of 15 cm, and consists of a cylindrical part in which the body of the rat is inserted and a cap part which covers the head. In the upper portion of the cylinder, a vent was formed so as to connect a respiration flow meter. To tightly close the cylinder, a collar made of rubber or celluloid was put on the neck of the rat. In the cap part, an inlet for introducing capsaicin and a ventilating hole were formed. The respiration of the rats was measured by measuring the movement of the thorax due to the respiration in terms of the change in the inner volume of the cylinder by the respiration flow meter. […] This large change is distinguished from the normal respiration and measured by the respiration flow meter. The number of this large change was measured, which is defined as the number of cough.
(§3) Capsaicin (60 μM) was converted to mist by ultrasonic nebulizer and the mist was sent by an artificial respirator into the cap covering the head of the rat through a silicone tube, thereby inducing cough. Capsaicin was transferred by the artificial respirator for inhalation at a dose of 10 ml/time and at a rate of 70 times/min.
The rats were made to inhale capsaicin for 5 minutes at 270 minutes before the administration of the test compound. Induction of cough was confirmed during the inhalation of capsaicin. The rats were made to inhale capsaicin for 5 minutes at 30 minutes after administration of the test compound, and the number of induced cough during this period was measured. The antitussive effect was evaluated in terms of the suppression rate, that is, the ratio of the number of cough after administration of the test compound to the number of cough before administration of the test compound. Capsaicin was dissolved in saline. The test compounds were dissolved in aqueous 10% DMSO solution. In any case, the test compounds were intraperitoneally administered. The effectiveness of each of the test compounds is shown in terms of ED50 value which means the dose at which the number of cough is suppressed to half.

capsaicin-induced cough [2] = assay: Capsaicin-induced cough in rats (30 μM capsaicin), plethysmography, Examples 1 and 2; format: in vivo, SD male rats
Protocol: as §1, §2
as §3, with “(30” for “(60”, “20” for “10”, “30” for “70”
The rats were made to inhale capsaicin for 5 minutes at 15 minutes before the administration of the test compound. Induction of cough was confirmed during the inhalation of capsaicin. The rats were made to inhale capsaicin for 5 minutes at 15, 60 and 120 minutes after administration of the compound, and the number of induced cough was measured during this period. The antitussive effect was evaluated in terms of the suppression rate, that is, the ratio of the number of cough after administration of the test compound to the number of cough before administration of the compound. The measured suppression rates were compared using Mann Whiteny U-test. If there is a difference at significant level (P<0.05), the difference was evaluated as significant. Capsaicin was dissolved in 10% ethanol and 10% Tween 80 and diluted with saline. The test compound was dissolved in saline. In any case, the test compound was intraperitoneally administered.

**Q.** With Oc1ccc2c3c1O[C@H]1c4[nH]c5c(ccc6cnccc65)c4C[C@@]4(O)[C@@H](C2)N(CC2CC2)CC[C@]314 [Compound 5, 17-cyclopropylmethyl-6,7-didehydro-4,5α-epoxy-3,14β-dihydroxy-[6',7'-b]-pyrido-6,7,2',3'-indolomorphinan] as the compound, how does the ED50 (capsaicin-induced cough [1]) read?
**A.** The ED50 was 0.0797 mg/kg.

**Q.** For COc1ccc2c3c1O[C@H]1c4[nH]c5c(ccc6cnccc65)c4C[C@@]4(O)[C@@H](C2)N(CC2CC2)CC[C@]314 [Compound 6, 17-cyclopropylmethyl-6,7-didehydro-4,5α-epoxy-14β-hydroxy-3-methoxy-[6',7'-b]-pyrido-6,7,2',3'-indolomorphinan], which ED50 (capsaicin-induced cough [1]) is on record?
**A.** Its ED50 is 0.0413 mg/kg.

**Q.** Which ED50 (capsaicin-induced cough [1]) does the source give for Oc1ccc2c3c1O[C@H]1c4[nH]c5c6c(ccc5c4C[C@@]4(O)[C@@H](C2)N(CC2CC2)CC[C@]314)CCCC6 [Compound 2, 17-cyclopropylmethyl-6,7-didehydro-4,5α-epoxy-3,14β-dihydroxy-6',7'-cyclohexeno-6,7,2',3'-indolomorphinan] here?
**A.** Its ED50 is 0.0395 mg/kg.

**Q.** How did the ED50 (capsaicin-induced cough [1]) turn out when Oc1ccc2c3c1O[C@H]1c4nc5ccccc5cc4C[C@@]4(O)[C@@H](C2)N(CC2CC2)CC[C@]314 [Compound 4, 17-cyclopropylmethyl-6,7-didehydro-4,5α-epoxy-3,14β-dihydroxy-6,7,2',3'-quinolinomorphinan] was run?
**A.** The ED50 was 0.984 mg/kg.

**Q.** COc1cc(CNC(=O)CCCC/C=C/C(C)C)ccc1O [capsaicin, reference compound] was tested. Which “number of cough induced by inhalation of capsaicin” value (capsaicin-induced cough [2]; capsaicin 30 μM mist, 5 min inhalation) did it give?
**A.** The value was 22.5±1.2 times/5 minutes.

**Q.** Which results are given for Oc1ccc2c3c1O[C@H]1c4[nH]c5ccccc5c4C[C@@]4(O)[C@@H](C2)N(CC2CC2)CC[C@]314 [Compound 1, 17-cyclopropylmethyl-6,7-didehydro-4,5α-epoxy-3,14β-dihydroxy-6,7,2',3'-indolomorphinan]?
**A.** dose-dependence of antitussive effect (capsaicin-induced cough [2]; 0.03 mg/kg to 1 mg/kg, i.p., 15 minutes after administration): dose-dependent antitussive effect; antitussive effect (capsaicin-induced cough [2]; 1 mg/kg, i.p.): a significant antitussive effect was observed; peak of the antitussive effect (time after administration) (capsaicin-induced cough [2]; 1 mg/kg, i.p.): 15 min; antitussive effect at 120 minutes compared with saline group (capsaicin-induced cough [2]; 1 mg/kg, i.p., 120 minutes after administration, vs saline group): a significant antitussive effect was observed even 120 minutes after the administration; antitussive effect compared with morphine (0.3 mg/kg) (capsaicin-induced cough [2]; Compound 1 1 mg/kg vs morphine 0.3 mg/kg, i.p., 15 minutes after administration): substantially identical to that by morphine (0.3 mg/kg)

**Q.** How did the ED50 (capsaicin-induced cough [1]) turn out when COc1ccc2c3c1O[C@H]1c4[nH]c5ccccc5c4C[C@@]4(O)[C@@H](C2)N(CC2CC2)CC[C@]314 [Compound 7, 17-cyclopropylmethyl-6,7-didehydro-4,5α-epoxy-14β-hydroxy-3-methoxy-6,7,2',3'-indolomorphinan] was run?
**A.** Its ED50 is 0.0639 mg/kg.
